Efflux ratio and Papp A→B data for one molecule are collected here from patent US20240254119A1 (THIRD HARMONIC BIO, INC., priority 2022, published 2024).

For this data set, the target named is T1, MDR1 (Homo sapiens, UniProt P08183).
T1 construct: host or cells: MDCKII (canine kidney) cells
Briefly: Permeability in MDR1-MDCKII cells. Type of data set: in vitro ADME. Conditions: dog, MDCK-MDR1, pH 7.4. On the procedure:
Exemplary compounds were tested for cell permeability in Caco-2, MDCKII-MDR1 and MDCKII-BCRP cell lines with efflux transporter engagement inferred from the efflux ratios determined. Procedures and results are described below. […] This feature of certain compounds is in part due to efflux transporter engagement. See, for instance, exemplary such compounds included in data tables below.
MDR1-MDCKII cells (obtained from Piet Borst at the Netherlands Cancer Institute) were seeded onto […] membranes (PET) in 96-well insert systems at 2.5×10^5 cells/mL until to 4-7 days for confluent cell monolayer formation.
Test compounds were diluted with the transport buffer (HBSS with 10 mM Hepes, pH7.4) from DMSO stock solution to a concentration of 2.00 μM (DMSO<1%) and applied to the apical or basolateral side of the cell monolayer. Permeation of the test compounds from A to B direction or B to A direction was determined in duplicate. Digoxin was tested at 10.0 μM from A to B direction or B to A direction as well, while nadolol and metoprolol were tested at […] in A to B direction in duplicate. The plate was incubated for 2.5 hours in CO2 incubator at 37±1° C., with 5% CO2 at saturated humidity without shaking. In addition, the efflux ratio of each compound was also determined. Test and reference compounds were quantified by LC-MS/MS analysis based on the peak area ratio of analyte/IS.
After transport assay, Lucifer yellow rejection assay are applied to determine the cell monolayer integrity. Buffers are removed from both apical and basolateral chambers, followed by the addition of 75 μL of 100 μM lucifer yellow in transport buffer and 250 μL transport buffer in apical and basolateral chambers, respectively. The plate is incubated for 30 minutes at 37° C. with 5% CO2 and saturated humidity without shaking. After 30 minutes incubation, 20 μL of lucifer yellow samples are taken from the apical sides, followed by the addition of 60 μL of Transport Buffer. And then 80 μL of lucifer yellow samples are taken from the basolateral sides. The relative fluorescence unit (RFU) of lucifer yellow is measured at 425/528 nm (excitation/emission) with an Envision plate reader.
The apparent permeability coefficient Papp (cm/s) was calculated using the equation: […]
Where dCr/dt is the cumulative concentration of compound in the receiver chamber as a function of time (μM/s); Vr is the solution volume in the receiver chamber (0.075 mL on the apical side, 0.25 mL on the basolateral side); A is the surface area for the transport, i.e. 0.0804 cm^2 for the area of the monolayer; C0 is the initial concentration in the donor chamber (μM). The efflux ratio was calculated using the equation: […]
Where Vd is the volume in the donor chambers (0.075 mL on the apical side, 0.25 mL on the basolateral side); Cd and Cr are the final concentrations of transport compound in donor and receiver chambers, respectively.

T1 sequence (P08183 whole entry): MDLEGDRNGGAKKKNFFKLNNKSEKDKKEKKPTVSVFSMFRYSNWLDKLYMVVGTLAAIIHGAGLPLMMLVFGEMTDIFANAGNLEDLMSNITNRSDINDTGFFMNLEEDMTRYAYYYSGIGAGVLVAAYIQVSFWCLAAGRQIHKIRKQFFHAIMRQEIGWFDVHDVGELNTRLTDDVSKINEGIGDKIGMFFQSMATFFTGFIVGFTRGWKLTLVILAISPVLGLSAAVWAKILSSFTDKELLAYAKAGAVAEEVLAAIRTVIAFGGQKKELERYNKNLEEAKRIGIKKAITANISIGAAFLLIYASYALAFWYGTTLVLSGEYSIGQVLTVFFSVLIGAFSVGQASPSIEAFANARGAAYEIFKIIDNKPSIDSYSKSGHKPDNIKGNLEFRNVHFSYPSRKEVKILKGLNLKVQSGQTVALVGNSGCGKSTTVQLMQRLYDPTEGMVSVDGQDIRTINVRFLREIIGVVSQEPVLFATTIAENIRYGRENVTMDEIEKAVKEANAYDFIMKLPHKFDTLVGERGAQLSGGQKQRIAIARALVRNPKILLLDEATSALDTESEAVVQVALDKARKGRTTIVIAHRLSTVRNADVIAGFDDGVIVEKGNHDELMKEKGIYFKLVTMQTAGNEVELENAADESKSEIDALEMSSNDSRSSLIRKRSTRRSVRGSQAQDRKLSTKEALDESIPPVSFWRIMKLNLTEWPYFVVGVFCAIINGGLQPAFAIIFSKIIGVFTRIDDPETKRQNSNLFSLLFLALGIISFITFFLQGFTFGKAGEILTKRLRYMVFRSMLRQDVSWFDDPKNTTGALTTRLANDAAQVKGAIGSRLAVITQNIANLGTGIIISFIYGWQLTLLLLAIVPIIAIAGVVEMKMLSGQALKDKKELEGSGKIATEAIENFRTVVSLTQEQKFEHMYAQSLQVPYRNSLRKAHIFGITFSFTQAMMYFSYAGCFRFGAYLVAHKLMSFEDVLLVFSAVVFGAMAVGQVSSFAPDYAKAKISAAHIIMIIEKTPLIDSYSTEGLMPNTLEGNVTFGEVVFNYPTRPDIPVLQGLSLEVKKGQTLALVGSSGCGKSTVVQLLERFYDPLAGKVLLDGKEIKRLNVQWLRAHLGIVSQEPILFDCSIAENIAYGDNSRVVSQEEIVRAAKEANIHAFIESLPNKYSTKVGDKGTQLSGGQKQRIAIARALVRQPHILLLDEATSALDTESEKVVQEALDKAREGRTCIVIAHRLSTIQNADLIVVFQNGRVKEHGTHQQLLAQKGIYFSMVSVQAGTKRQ

What is called efflux ratio is the permeability from basolateral to apical divided by that in the opposite direction, in the common usage. A word on the Papp A→B: it is the apparent permeability from the apical to the basolateral side of a cell layer. Higher therefore signals ready permeation. As for `Cc1ccc(-c2noc([C@H]3C[C@@H]3F)n2)cc1NC(=O)c1cnc2cc(COCC(C)(C)O)ccn12` [Compound I-71, N-[5-[5-[(1R,2S)-2-fluorocyclopropyl]-1,2,4-oxadiazol-3-yl]-2-methyl-phenyl]-7-[(2-hydroxy-2-methyl-propoxy)methyl]imidazo[1,2-a]pyridine-3-carboxamide], the efflux ratio at 2.5 h, 2 μM (MDCKII-MDR1) amounted to 5.15. The molecule further registered an apical-to-basolateral permeability (Papp A→B) at 2.5 h, 2 μM (MDCKII-MDR1, apical to basolateral) of 5.94 ×10⁻⁶ cm/s.
